“And” between values parts separate entries of the source, which are not always exact repeats. Equal entries are not always repeated.

This experiment deals with Apoptosis regulator Bcl-2 (Homo sapiens, UniProt P10415). Kind of experiment: Bcl-2 TR-FRET Assay. As to the method: Compounds disclosed herein were tested for blocking of Bcl-2 protein with its ligand in an assay based on Time-Resolved Fluorescence Resonance Energy Transfer (TR-FRET) methodology. Recombinant human 0.05 nM Bcl-2 protein was pre-incubated with a serial dilution of compounds disclosed herein (top final concentration is 1 uM or 0.1 uM or 0.02 uM or 0.01 uM, 10 points) at room temperature for 0.5 hour in an assay buffer containing 20 mM potassium phosphate buffer, pH 7.5, 50 mM NaCl. 1 mM EDTA, 0.05% Tween-20, 0.01% BSA. Then the FITC labeled Bak peptide Ac-GQVGRQLAIIGDK(FITC)INR-amide (0.5 nM) and MAb Anti 6His Tb cryptate Gold were added to plate and further incubated at room temperature for 1 hour. The TR-FRET signals (337 nm-520 nm-490 nm) were read on BMG PHERAstar FSX instrument. The inhibition percentage of Bcl-2 interaction with its ligand in presence of increasing concentrations of compounds was calculated based on the TR-FRET signals.
Apoptosis regulator Bcl-2, sequence (P10415 whole entry): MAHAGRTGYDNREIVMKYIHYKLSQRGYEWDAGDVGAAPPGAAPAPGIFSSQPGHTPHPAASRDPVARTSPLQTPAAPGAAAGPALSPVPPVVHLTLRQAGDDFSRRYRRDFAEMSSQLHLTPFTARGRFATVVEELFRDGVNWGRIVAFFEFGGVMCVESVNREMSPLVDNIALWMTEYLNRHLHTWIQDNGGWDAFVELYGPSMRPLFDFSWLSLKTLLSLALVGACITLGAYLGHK
For `CC(C)c1ccccc1C1CN(CC(C)(C)C)CCN1C1CC2(CCN(c3ccc(C(=O)NS(=O)(=O)c4ccc(NC[C@H]5CC[C@](C)(O)CC5)c([N+](=O)[O-])c4)c(Oc4cnc5[nH]ccc5c4)c3)CC2)C1` (some centres undefined) [US20240376097, Example 12], the 50% inhibitory concentration (IC50) – broadly, the point on the concentration scale where inhibition reaches its midpoint – was found to be 730 pM.

`COCCN1CCN(C2CC3(CCN(c4ccc(C(=O)NS(=O)(=O)c5ccc(NC[C@H]6CC[C@](C)(O)CC6)c([N+](=O)[O-])c5)c(Oc5cnc6[nH]ccc6c5)c4)CC3)C2)C(c2ccccc2C(C)C)C1` (some centres undefined) [US20240376097, Example 13] gave an IC50 of 11 pM.

In turn, `COc1ccc(CN2CCN(C3CC4(CCN(c5ccc(C(=O)NS(=O)(=O)c6ccc(NC[C@H]7CC[C@](C)(O)CC7)c([N+](=O)[O-])c6)c(Oc6cnc7[nH]ccc7c6)c5)CC4)C3)C(c3ccccc3C(C)C)C2)cc1` (some centres undefined) [US20240376097, Example 19] returned an IC50 of 86 pM. This IC50 lies about 7.8-fold higher than the previous one.

Compound `COc1cc(CN2CCN(C3CC4(CCN(c5ccc(C(=O)NS(=O)(=O)c6ccc(NC[C@H]7CC[C@](C)(O)CC7)c([N+](=O)[O-])c6)c(Oc6cnc7[nH]ccc7c6)c5)CC4)C3)C(c3ccccc3C(C)C)C2)cc(OC)c1` (some centres undefined) [US20240376097, Example 49] came in with an IC50 of 200 pM.

In the case of `COc1cc(CN2CCN(C3CC4(CCN(c5ccc(C(=O)NS(=O)(=O)c6ccc(NC[C@H]7CC[C@](C)(O)CC7)c([N+](=O)[O-])c6)c(Oc6cnc7[nH]ccc7c6)c5)CC4)C3)C(c3ccccc3C(C)C)C2)cc(C(F)(F)F)c1OC` (some centres undefined) [US20240376097, Example 179], inhibition was half-maximal at 1500 pM (IC50).

`COc1cc(CN2CCN(C3CC4(CCN(c5ccc(C(=O)NS(=O)(=O)c6ccc(NC[C@H]7CC[C@](C)(O)CC7)c([N+](=O)[O-])c6)c(Oc6cnc7[nH]cc(F)c7c6)c5)CC4)C3)[C@H](c3ccccc3C(C)C)C2)cc(C)c1OC` [US20240376097, Example 210] came in with an IC50 of 330 pM. This IC50 lies about 4.5-fold lower than the previous one.

For `COc1cc(CN2CCN(C3CC4(CCN(c5ccc(C(=O)NS(=O)(=O)c6ccc(NC[C@H]7CC[C@](C)(O)CC7)c([N+](=O)[O-])c6)c(Oc6cnc7[nH]ccc7c6)c5)CC4)C3)[C@H](c3ccccc3C(C)C)C2)ccc1Cl` [US20240376097, Example 276], the IC50 was found to be 480 pM.

With `COc1cc(CN2CCN(C3CC4(CCN(c5ccc(C(=O)NS(=O)(=O)c6ccc(NC[C@H]7CC[C@](C)(O)CC7)c([N+](=O)[O-])c6)c(Oc6cnc7[nH]cc(F)c7c6)c5)CC4)C3)[C@H](c3ccccc3C(C)C)C2)ccc1Cl` [US20240376097, Example 278], the concentration for half-maximal inhibition (IC50) was 600 pM.

For `CC(C)c1ccccc1[C@@H]1CN(Cc2ccc(OC3CC3)c(OC3CC3)c2)CCN1C1CC2(C1)CN(c1ccc(C(=O)NS(=O)(=O)c3ccc(NC[C@H]4CC[C@](C)(O)CC4)c([N+](=O)[O-])c3)c(Oc3cnc4[nH]cc(F)c4c3)c1)C2` [US20240376097, Example 363], the IC50 is 340 pM and 400 pM.

Values taken from BindingDB's records for patent US20240376097 (Beigene, 2024).
